Results: patent US12202805B2, “Process for preparing (5S)-{[2-(4-carboxyphenyl)ethyl] |2-(2-{|3-chloro-4'-(trifluoromethyl)biphenyl-4-yl]methoxy}phenyl)ethyl]aminol-5,6,7,8-tetrahydroquinoline-2-carboxylic acid and its crystalline forms for use as pharmaceutically active compound” (Bayer Aktiengesellschaft, priority 2021, dated 2025)

Key:
[1] = Protein binding via Transil assay, rat plasma; assay type: in vitro ADME
Method: (§1) Protein Binding of Comparative Example 11 and Comparative Example 1 was Analyzed Via Transil Assay, Described Below.
(§2) The distribution of a test substance between Transil® (phosphatidylcholine lipid bilayers immobilized on silica beads) and plasma is a characteristic feature of any pharmaceutical compound and is dependent on its extent of binding to plasma proteins. By comparing the distribution between Transil® and buffer with the distribution between Transil® and plasma of any species of interest, the unbound fraction in the plasma of the respective animal species can be calculated in vitro. The respective plasma and buffer concentrations were determined via a radioactivity analysis. A detailed description of the method and its validation was published by Schuhmacher et al. (2).

[2] = Protein binding via Transil assay, monkey plasma; assay type: in vitro ADME
Method: as §1, §2

[3] = system: unilateral ventilated minipig model; assay: Unilateral ventilated minipig model as a proxy of VQ-mismatch; assay type: in vivo; conditions: inhaled application
PAH-minipig model = PAH-minipig model on top of PAH standard-of-care; assay type: in vivo; conditions: inhaled; SoC e.g. bosentan, sildenafil, Ilomedin, riociguat
sGC = assay: E-2.1 inhalative administration in healthy male subjects for 7 days: cGMP in blood samples; assay type: in vivo, human
Method: E-2.1 Inhalative Administration of sGC Activators in Healthy Male Subjects for 7 Days—cGMP and Bronchodilatation
Healthy White male subjects, aged 18 to 45 years and with a body mass index (BMI) above/equal 18.5 and below/equal 29.9 kg/m2 were treated in a clinical pharmacological phase I study on seven days with inhaled once daily doses of 480 μg or 1000 μg or 2000 μg (2 capsules of 1000 μg) (nominal dose) of dry powder formulations comprising example 2 or Placebo. The subjects inhaled the drug powder from capsules (see under C-1, e.g. tables 22 and 23) inserted into a handheld inhalation device by one deep inhalative breath. The dry powder formulation of the drug is dispersed into the airstream and fine particles are transported into the deep parts of the lung where it is intended to cause a vasodilation of the blood vessels in PH patients for a substantial reduction of increased blood pressure in the central pulmonary blood vessels in PAH patients or other subtypes of PH. This effect cannot be shown in subjects with healthy lungs. In addition inhaled drug causes a dilation of the bronchial airways and thus also improves disease states of lung diseases in PH patients with pathological bronchoconstriction. This effect was measured via bodyplethysmography as reduction of Specific Airway Resistance in healthy subjects. After the deep inhalative breath the subjects hold breath for 2 seconds, so that the dry powder drug condenses from the airstream onto the surface of the deeper lung areas where it is deposited close to its site of intended pharmacological action. The drug dissolutes over the day and equilibrates the lung via lining fluid.
Drug activity in healthy men was controlled in the healthy subjects by analysing blood samples for cGMP, the immediate product of sGC pharmacological activation prior after the first and after the last drug inhalation of the 7 days treatment in comparison to measurements on the pretreatment day for all doses.

Row | SMILES | fraction unbound, times lower than comparative example 1 [1] [times] | free fraction, times lower than comparative example 1 [2] [times] | effect on PAP and oxygenation [3] | effect on elevated PAP on top of PAH standard-of-care (PAH-minipig model) | cGMP over time (mean) (sGC; 480 μg, 8 D 00 H 00 M) [nmol/L] | cGMP over time (mean) (sGC; 480 μg, 8 D 12 H 00 M) [nmol/L] | cGMP over time (mean) (sGC; 480 μg, −0 D 09 H 00 M) [nmol/L] | cGMP over time (mean) (sGC; 480 μg, −1 D 02 H 00 M) [nmol/L] | cGMP over time (mean) (sGC; 1000 μg, 5 D 00 H 00 M) [nmol/L] | cGMP over time (mean) (sGC; 1000 μg, −0 D 22 H 00 M) [nmol/L] | cGMP over time (mean) (sGC; 2000 μg, 2 D 00 H 00 M) [nmol/L] | cGMP over time (mean) (sGC; 2000 μg, 3 D 00 H 00 M) [nmol/L] | cGMP over time (mean) (sGC; 2000 μg, 8 D 00 H 00 M) [nmol/L] | cGMP over time (mean) (sGC; 2000 μg, 9 D 12 H 00 M) [nmol/L] | peak mean±SD cGMP value (sGC; first profile day, 1000 μg inhaled) [nmol/L]
1 | O=C(O)c1ccc(CCN(CCc2ccccc2OCc2ccc(-c3ccc(C(F)(F)F)cc3)cc2Cl)[C@H]2CCCc3nc(C(=O)O)ccc32)cc1 [comparative example 11, (5S)-5-{[2-(4-carboxyphenyl)ethyl][2-(2-{[3-chloro-4′-(trifluoromethyl)[biphenyl]-4-yl]methoxy}phenyl)ethyl]amino}-5,6,7,8-tetrahydroquinoline-2-carboxylic acid] | 1.6 | 2 | lowered PAP without negative effects on oxygenation | selectively decreased elevated PAP |  |  |  |  |  |  |  |  |  |  | 
2 | O=C(O)c1ccc(CCN(CCc2ccccc2OCc2ccc(-c3ccc(C(F)(F)F)cc3)cc2Cl)[C@H]2CCCc3nc(C(=O)O)ccc32)cc1 [example 2, (5S)—{[2-(4-Carboxyphenyl)ethyl][2-(2-{[3-chloro-4′-(trifluoromethyl)biphenyl-4-yl]methoxy}phenyl)-ethyl]amino}-5,6,7,8-tetrahydroquinoline-2-carboxylic acid as Monohydrate II] |  |  |  |  | 7.20 ± 3.23 | 6.20 ± 2.00 | 5.60 ± 1.08 | 5.40 ± 1.41 | 8.50 ± 2.13 | 5.10 ± 1.46 | 6.40 ± 2.09 | 10.00 ± 3.51 | 16.00 ± 5.77 | 9.40 ± 3.10 | 11.69 ± 1.86
